Consider 10 compounds from ChEMBL document CHEMBL1147850, “Conversion of some 2(3H)-furanones bearing a pyrazolyl group into other heterocyclic systems with a study of their antiviral activity” (2007).

Holding throughout (assay type): functional
What all share (design): scale not given: the % may be the effect or the level left

For assay [1], the system named is Human alphaherpesvirus 1. As to the kind of experiment: Antiviral activity against HSV1 in Vero cells assessed as plaque infectivity reduction at 20 ug/ml.
Assay [2] has as its system Human alphaherpesvirus 1. The assay is described as follows: Antiviral activity against HSV1 in Vero cells assessed as plaque infectivity reduction at 10 ug/ml.
For assay [3], the system named is Hepatovirus A. As to the kind of experiment: Antiviral activity against HAV in Vero cells assessed as plaque infectivity reduction at 10 ug/ml.
Assay [4] deals with Hepatovirus A. The assay is described as follows: Antiviral activity against HAV in Vero cells assessed as plaque infectivity reduction at 20 ug/ml.

On to `O=C(C/C(=C\c1cn(-c2ccccc2)nc1-c1ccccc1)c1n[nH]c(=S)[nH]1)c1ccc(Cl)cc1`, for which the Activity worked out at 38% in assay [1], 0% in assay [2], 40% in assay [3] and 50% in assay [4].

Take `O=C1OC(c2ccc(Cl)cc2)=C/C1=C\c1cn(-c2ccccc2)nc1-c1ccccc1`: the Activity in assay [1] came out at 0%; in assay [2], 0%; in assay [3] it was 40%; in assay [4] it was 60%.

On to `O=C(C/C(=C\c1cn(-c2ccccc2)nc1-c1ccccc1)c1n[nH]c(=S)o1)c1ccc(Cl)cc1`, for which the Activity is 45% in assay [1], 14% in assay [2], 0% in assay [3] and 0% in assay [4].

With `COc1ccc(C2=C/C(=C\c3cn(-c4ccccc4)nc3-c3ccccc3)C(=O)N2Cc2ccccc2)cc1`, the Activity in assay [1] turned out to be 45%; in assay [2] it was 23%; in assay [3] it was 0%; in assay [4] it was 0%.

`O=C(C/C(=C\c1cn(-c2ccccc2)nc1-c1ccccc1)c1n[nH]c(=O)[nH]1)c1ccc(Cl)cc1`: the Activity is listed as 14% in assay [1], 0% in assay [2], 0% in assay [3] and 10% in assay [4].

For `NC(=O)NNC(=O)/C(=C/c1cn(-c2ccccc2)nc1-c1ccccc1)CC(=O)c1ccc(Cl)cc1`, the Activity in assay [1] is on record as 52%; in assay [2], 42.8%; in assay [3], 0%; in assay [4] it was 20%.

Consider `O=C(NNC(=O)c1ccccc1)/C(=C/c1cn(-c2ccccc2)nc1-c1ccccc1)CC(=O)c1ccc(Cl)cc1`, for which the Activity in assay [1] was determined as 38%; in assay [2], 10%; in assay [3] it was 30%; in assay [4], 60%.

Turning to `COc1ccc(-c2cc(Cc3cn(-c4ccccc4)nc3-c3ccccc3)c(=O)[nH]n2)cc1`, the Activity was determined as 47% in assay [1], 21% in assay [2], 20% in assay [3] and 50% in assay [4].

Take `NNC(=O)/C(=C/c1cn(-c2ccccc2)nc1-c1ccccc1)CC(=O)c1ccc(Cl)cc1`: the Activity amounted to 42.8% in assay [1], 26% in assay [2], 20% in assay [3] and 30% in assay [4].

`O=C(NCc1ccccc1)/C(=C/c1cn(-c2ccccc2)nc1-c1ccccc1)CC(=O)c1ccc(Cl)cc1`: the Activity in assay [1] was 23.8%; in assay [2] it was 4%; in assay [3], 40%; in assay [4], 60%.
